Laboratory results taken from patent publication US8206983B2, “In vitro methods for the induction and maintenance of plant cell lines as single suspension cells with intact cell walls” (Dow AgroSciences, LLC., priority 2006, dated 2012).

Experiments:
NT1 suspension cells = experiment: Effects of colchicine on growth of NT1 suspension cells; type: cell-based, Nicotiana tabacum; conditions: 1 mM
Excerpt: (§1) BY2 suspension-cultured cells were obtained from Japan tobacco and maintained in LSBY2 medium in a 7 day cycle. Jimsonweed suspension and Pettite Havana tobacco suspensions were initiated from callus initiated at DAS and Xanthi suspensions were procured as a sample from Professor Jack Widholm from UIUC, IL. JT-NT1 suspension cells, obtained from Washington University that are maintained in NT1B medium in 7 day cycle were used only for the pectin degradation enzyme study to separate the cells into single cells. The cells were cultured in shake flasks at 25-28° C. in dark on orbital shakers at 150 rpm. […] The NT-1 cell line is widely used and readily available; though, any tobacco suspension cell line is consistent with the practice of the invention. […]
(§2) Cell expansion and separation were observed by light microscopy (with Nomarski and dark field optics). Spherical cells and single cells were counted by using a hemacytometer to determine the degree of cell expansion and separation, respectively. Cell numbers in aggregates were determined by treating with 5% (wt/vol) chromium trioxide for 16 hr and counting cells (Henshaw et. al, 1966). Cell viability was determined by staining cells (Yokoyama et. al, 1997) with fluorescein diacetate (FDA) and propidium iodide (PI) using a fluorescent microscope (Zeiss Photomicroscope). […]

[1] = test system: Xanthi tobacco suspension; experiment: Single cell induction by colchicine in Xanthi suspension; type: cell-based
Excerpt: as §1, §2

soybean suspension cells = conditions: cited from earlier work
PH suspension cells = experiment: Recovery of Petite Havana suspension cells after DAS-PMTI-1 treatment; type: cell-based, tobacco; conditions: after 7 days at 0.5 mM; after 2 weeks
Excerpt: as §1, §2

JTNT1 single cells = experiment: Cytological characterization of JTNT1 single cells (nucleus, cell wall); type: cell-based, tobacco
Experimental: JTNT1 Tobacco single cell initiation and sample collection. JTNT1 Tobacco single cells were initiated in two different media, NT1B with 3% sucrose (NT1B-Suc) and NT1B with 3% glycerol (NT1B-Gly) in 3.5 day culture cycle. […] The flasks were closed with a foam stopper and cultured on a orbital shaker at 130 rpm in dark at 25-28° C. The cultures were sub cultured every 3.5 days up to a period of 14 days. Four samples (Suc/Gly grown cells and the control cultures in Suc/Gly media with 0.2% DMSO) of the cultures were harvested every 3.5 days by spinning the suspension at 3000 rpm for 5 minutes. The samples were immediately lyophilized to prevent any cell oxidation to minimize any deleterious effect on the samples introduced post harvest. Single cells were stained with Hoechst nuclear stain for an hour and observed under scopes for any nuclear anomaly up to two culture cycles.
Cell viability and Cell wall. Established JTNT1 single cells were used to stain with FUN1 (F-7030, Molecular Probes, Invitrogen Inc) cell stain which is used for viability test in yeast, and this contains two color fluorescent probes. The third one, Calcofluor White M2R which stains cell wall, was used to stain the cells. For JTNT1 single cells, […] of FUN1 stain is added and the culture was incubated at room temperature for 20 mins 1 mL fresh culture media was added to wash the excess stain and centrifuged at 3000 rpm; the supernantant was discarded. The cells were examined and imaged on Zeiss ApoTome microscope.
Nucleus. Single cells were stained with Hoechst nuclear stain for an hour and observed on Zeiss Apo Tome for any nuclear anomaly up to two culture cycles. Crystal violet stain was also used as a live nuclear stain for observing nuclear structure for ploidy characterization

Row | nuclear organization of single cells (JTNT1 single cells; 1 uM, 3.5 d cultures) | nuclear ploidy (JTNT1 single cells; 14 days of continuous treatments) | SMILES | reduction in growth (NT1 suspension cells) [%] | single cell release ([1]; 0.5 mM, 7 d) | single cell release ([1]; 1 mM) | viable cells (soybean suspension cells; 1 mM colchicine) [%] | concentration in culture medium for cell separation (soybean suspension cells) [mM] | recovery after subculture in the absence of the compound (PH suspension cells)
1 | – | – | COc1cc2c(c(OC)c1OC)-c1ccc(OC)c(=O)cc1[C@@H](NC(C)=O)CC2 [Colchicine] | ~50 | partial release of single cells | Separated single cells | 44.8 | 0.1 to 1.0 | –
2 | single nucleus | low or no nuclear ploidy percentage | CCOC(=O)COc1nn(-c2ccccc2)c(-c2ccccc2)c1Cl [DAS-PMTI-1] | – | – | – | – | – | recovered as single cells with a low frequency
